Test results taken from the supplement of paper PMC13207355.
Where a name gives a salt, the structure may show the parent alone.

Columns and labels:
Settings in all cases: exposure time: 72 h
E13 [1] = patient-derived glioblastoma stem cells of classical subtype; test: surviving fraction (nuclei count normalised to DMSO); higher = more cells surviving (less toxic)
E21 [2] = patient-derived glioblastoma stem cells of mesenchymal subtype; test: as above
E28 [3] = patient-derived glioblastoma stem cells of classical subtype; test: as above
E31 [4] = patient-derived glioblastoma stem cells of proneural subtype; test: as above
E34 [5] = patient-derived glioblastoma stem cells of proneural subtype; test: as above
E57 [6] = patient-derived glioblastoma stem cells of mesenchymal subtype; test: as above
FT3469 [7] = normal neural stem cell line; test: as above
E13 [8] = test: phenotypic distance (Euclidean, principal components) from DMSO controls (arbitrary units); higher = stronger morphological change
E21 [9] = test: as above
E28 [10] = test: as above
E31 [11] = test: as above
E34 [12] = test: as above
E57 [13] = test: as above
FT3469 [14] = test: as above
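For phenotypic distance (Euclidean, principal components) from DMSO controls in this document: cell Painting imaging in 384-well plates, CellProfiler features reduced to at least 20 principal components, Euclidean distance versus same-plate DMSO vehicle wells (0.1% v/v), median over six images per well.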
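For surviving fraction (nuclei count normalised to DMSO) in this document: nuclei counted by high-content imaging of Hoechst-stained cells in laminin-coated 384-well plates, relative to 0.1% DMSO vehicle wells, with staurosporine as cell-death control.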

CC(C)N1CCN(c2ccc(OCC3COC(Cn4cncn4)(c4ccc(Cl)cc4Cl)O3)cc2)CC1 (stereo unspecified) [Terconazole]
Settings | phenotypic distance | surviving fraction
E13 [1], 4.1 nM | – | 0.892
E13 [1], 12.3 nM | – | 0.918
E13 [1], 37 nM | – | 0.999
E13 [1], 111.1 nM | – | 0.856
E13 [1], 333.3 nM | – | 0.988
E13 [1], 1000 nM | – | 1.02
E13 [1], 3000 nM | – | 0.958
E13 [8], 4.1 nM | 0.687 | –
E13 [8], 12.3 nM | 5.3 | –
E13 [8], 37 nM | 0.523 | –
E13 [8], 111.1 nM | 0.619 | –
E13 [8], 333.3 nM | 0.667 | –
E13 [8], 1000 nM | 0.49 | –
E13 [8], 3000 nM | 0.901 | –
E21 [2], 4.1 nM | – | 0.938
E21 [2], 12.3 nM | – | 0.927
E21 [2], 37 nM | – | 0.891
E21 [2], 111.1 nM | – | 0.99
E21 [2], 333.3 nM | – | 0.933
E21 [2], 1000 nM | – | 1.03
E21 [2], 3000 nM | – | 0.813
E21 [9], 4.1 nM | 0.486 | –
E21 [9], 12.3 nM | 0.855 | –
E21 [9], 37 nM | 0.706 | –
E21 [9], 111.1 nM | 0.737 | –
E21 [9], 333.3 nM | 0.686 | –
E21 [9], 1000 nM | 0.994 | –
E21 [9], 3000 nM | 1.83 | –
E28 [3], 4.1 nM | – | 1.15
E28 [3], 12.3 nM | – | 1.04
E28 [3], 37 nM | – | 0.91
E28 [3], 111.1 nM | – | 0.941
E28 [3], 333.3 nM | – | 1.09
E28 [3], 1000 nM | – | 1.02
E28 [3], 3000 nM | – | 0.951
E28 [10], 4.1 nM | 0.79 | –
E28 [10], 12.3 nM | 0.643 | –
E28 [10], 37 nM | 0.472 | –
E28 [10], 111.1 nM | 0.647 | –
E28 [10], 333.3 nM | 0.465 | –
E28 [10], 1000 nM | 0.53 | –
E28 [10], 3000 nM | 2.3 | –
E31 [4], 4.1 nM | – | 1.04
E31 [4], 12.3 nM | – | 0.925
E31 [4], 37 nM | – | 0.922
E31 [4], 111.1 nM | – | 1.01
E31 [4], 333.3 nM | – | 0.96
E31 [4], 1000 nM | – | 0.889
E31 [4], 3000 nM | – | 0.873
E31 [11], 4.1 nM | 0.557 | –
E31 [11], 12.3 nM | 1.01 | –
E31 [11], 37 nM | 0.47 | –
E31 [11], 111.1 nM | 0.863 | –
E31 [11], 333.3 nM | 0.868 | –
E31 [11], 1000 nM | 0.76 | –
E31 [11], 3000 nM | 2.39 | –
E34 [5], 4.1 nM | – | 0.941
E34 [5], 12.3 nM | – | 0.827
E34 [5], 37 nM | – | 0.91
E34 [5], 111.1 nM | – | 1.04
E34 [5], 333.3 nM | – | 1.01
E34 [5], 1000 nM | – | 1.1
E34 [5], 3000 nM | – | 0.994
E34 [12], 4.1 nM | 0.517 | –
E34 [12], 12.3 nM | 1.12 | –
E34 [12], 37 nM | 0.485 | –
E34 [12], 111.1 nM | 0.473 | –
E34 [12], 333.3 nM | 0.562 | –
E34 [12], 1000 nM | 0.745 | –
E34 [12], 3000 nM | 0.672 | –
E57 [6], 4.1 nM | – | 0.985
E57 [6], 12.3 nM | – | 0.938
E57 [6], 37 nM | – | 0.963
E57 [6], 111.1 nM | – | 1
E57 [6], 333.3 nM | – | 0.978
E57 [6], 1000 nM | – | 1
E57 [6], 3000 nM | – | 0.948
E57 [13], 4.1 nM | 0.465 | –
E57 [13], 12.3 nM | 0.601 | –
E57 [13], 37 nM | 0.61 | –
E57 [13], 111.1 nM | 0.332 | –
E57 [13], 333.3 nM | 0.688 | –
E57 [13], 1000 nM | 0.505 | –
E57 [13], 3000 nM | 1.09 | –
FT3469 [7], 4.1 nM | – | 0.997
FT3469 [7], 12.3 nM | – | 0.89
FT3469 [7], 37 nM | – | 0.908
FT3469 [7], 111.1 nM | – | 0.85
FT3469 [7], 333.3 nM | – | 0.987
FT3469 [7], 1000 nM | – | 0.952
FT3469 [7], 3000 nM | – | 0.964
FT3469 [14], 4.1 nM | 0.835 | –
FT3469 [14], 12.3 nM | 0.931 | –
FT3469 [14], 37 nM | 1.01 | –
FT3469 [14], 111.1 nM | 0.79 | –
FT3469 [14], 333.3 nM | 0.822 | –
FT3469 [14], 1000 nM | 0.77 | –
FT3469 [14], 3000 nM | 1.17 | –

CSc1ccc2c(c1)N(CCC1CCCCN1C)c1ccccc1S2 (stereo unspecified) [Thioridazine hydrochloride]
Settings | phenotypic distance | surviving fraction
E13 [1], 4.1 nM | – | 0.922
E13 [1], 12.3 nM | – | 0.886
E13 [1], 37 nM | – | 0.934
E13 [1], 111.1 nM | – | 0.929
E13 [1], 333.3 nM | – | 0.939
E13 [1], 1000 nM | – | 0.93
E13 [1], 3000 nM | – | 0.861
E13 [8], 4.1 nM | 0.45 | –
E13 [8], 12.3 nM | 0.608 | –
E13 [8], 37 nM | 0.775 | –
E13 [8], 111.1 nM | 3.1 | –
E13 [8], 333.3 nM | 0.477 | –
E13 [8], 1000 nM | 0.686 | –
E13 [8], 3000 nM | 1.2 | –
E21 [2], 4.1 nM | – | 0.936
E21 [2], 12.3 nM | – | 0.936
E21 [2], 37 nM | – | 0.946
E21 [2], 111.1 nM | – | 1
E21 [2], 333.3 nM | – | 0.935
E21 [2], 1000 nM | – | 0.952
E21 [2], 3000 nM | – | 1.02
E21 [9], 4.1 nM | 1.5 | –
E21 [9], 12.3 nM | 0.757 | –
E21 [9], 37 nM | 0.366 | –
E21 [9], 111.1 nM | 0.452 | –
E21 [9], 333.3 nM | 0.631 | –
E21 [9], 1000 nM | 0.422 | –
E21 [9], 3000 nM | 0.911 | –
E28 [3], 4.1 nM | – | 1.06
E28 [3], 12.3 nM | – | 1.05
E28 [3], 37 nM | – | 1.01
E28 [3], 111.1 nM | – | 1.06
E28 [3], 333.3 nM | – | 1.14
E28 [3], 1000 nM | – | 0.893
E28 [3], 3000 nM | – | 1.05
E28 [10], 4.1 nM | 1.44 | –
E28 [10], 12.3 nM | 0.64 | –
E28 [10], 37 nM | 0.64 | –
E28 [10], 111.1 nM | 0.832 | –
E28 [10], 333.3 nM | 0.524 | –
E28 [10], 1000 nM | 0.717 | –
E28 [10], 3000 nM | 0.589 | –
E31 [4], 4.1 nM | – | 0.911
E31 [4], 12.3 nM | – | 0.899
E31 [4], 37 nM | – | 1.03
E31 [4], 111.1 nM | – | 0.762
E31 [4], 333.3 nM | – | 1.01
E31 [4], 1000 nM | – | 0.88
E31 [4], 3000 nM | – | 0.874
E31 [11], 4.1 nM | 1.05 | –
E31 [11], 12.3 nM | 0.458 | –
E31 [11], 37 nM | 0.506 | –
E31 [11], 111.1 nM | 0.946 | –
E31 [11], 333.3 nM | 0.547 | –
E31 [11], 1000 nM | 0.532 | –
E31 [11], 3000 nM | 1.19 | –
E34 [5], 4.1 nM | – | 0.994
E34 [5], 12.3 nM | – | 0.901
E34 [5], 37 nM | – | 0.957
E34 [5], 111.1 nM | – | 0.923
E34 [5], 333.3 nM | – | 0.896
E34 [5], 1000 nM | – | 0.974
E34 [5], 3000 nM | – | 0.91
E34 [12], 4.1 nM | 1.83 | –
E34 [12], 12.3 nM | 0.749 | –
E34 [12], 37 nM | 0.609 | –
E34 [12], 111.1 nM | 0.331 | –
E34 [12], 333.3 nM | 0.663 | –
E34 [12], 1000 nM | 0.609 | –
E34 [12], 3000 nM | 0.89 | –
E57 [6], 4.1 nM | – | 0.993
E57 [6], 12.3 nM | – | 0.914
E57 [6], 37 nM | – | 0.948
E57 [6], 111.1 nM | – | 0.926
E57 [6], 333.3 nM | – | 0.952
E57 [6], 1000 nM | – | 0.889
E57 [6], 3000 nM | – | 1.2
E57 [13], 4.1 nM | 1.05 | –
E57 [13], 12.3 nM | 0.805 | –
E57 [13], 37 nM | 0.596 | –
E57 [13], 111.1 nM | 0.728 | –
E57 [13], 333.3 nM | 0.352 | –
E57 [13], 1000 nM | 0.966 | –
E57 [13], 3000 nM | 0.872 | –
FT3469 [7], 4.1 nM | – | 1.11
FT3469 [7], 12.3 nM | – | 0.948
FT3469 [7], 37 nM | – | 1.02
FT3469 [7], 111.1 nM | – | 0.934
FT3469 [7], 333.3 nM | – | 1
FT3469 [7], 1000 nM | – | 1.06
FT3469 [7], 3000 nM | – | 0.997
FT3469 [14], 4.1 nM | 1.76 | –
FT3469 [14], 12.3 nM | 1.1 | –
FT3469 [14], 37 nM | 0.901 | –
FT3469 [14], 111.1 nM | 0.672 | –
FT3469 [14], 333.3 nM | 1.85 | –
FT3469 [14], 1000 nM | 0.516 | –
FT3469 [14], 3000 nM | 0.354 | –
